The SangsterLogP compilation

How the values were obtained:
[1] = method code SF-RC, from DOI: 10.1016/j.apradiso.2010.08.010, PMID: 20843697; conditions: pH 7.4
[2] = method code SF-HPLC, from DOI: 10.1023/a:1013643013244, PMID: 11837695; conditions: pH 6.4
[3] = method code SF, from DOI: 10.1584/jpestics.12.445
[4] = method code SF-AS, from DOI: 10.1002/jps.2600611027, PMID: 5072421
[5] = method code SF-RC, from DOI: 10.1016/s0969-8051(00)00080-9, PMID: 10832080; conditions: pH 13.0
[6] = not given; remark: listed apart in the source
[7] = method code SF-RC, from DOI: 10.1002/syn.20147; conditions: pH 7.4
[8] = method code SF-AS, from DOI: 10.1016/0378-5173(86)90115-8
[9] = method code SF-AS, from PMID: 7912440
[10] = not given; remark: listed apart in the source
[11] = not given; remark: listed apart in the source
[12] = method code SF-AS, from DOI: 10.1213/00000539-199008000-00008, PMID: 2375517
[13] = method code SF-HPLC, from Yu, G.; Xu, X. (1993). Determination of the 1-octanol/water partition coefficient of nitro-PAHs. Huanjing Huaxue, 12(4)299-303.
[14] = method code SF-HPLC, from DOI: 10.1016/0006-2952(94)90540-1, PMID: 8185676
[15] = not given; remark: listed apart in the source
[16] = method code SF-GLC, from DOI: 10.1016/s0021-9673(00)91779-5; conditions: pH 7.0
[17] = method code SF-AS, from DOI: 10.1002/pauz.19770060602
[18] = method code SF, from DOI: 10.1023/a:1012119527214, PMID: 9453056; conditions: pH 12.5
[19] = method code SF-AS, from DOI: 10.1016/0223-5234(96)88239-0; conditions: pH 2.0
[20] = method code SF-AS, from DOI: 10.1248/cpb.32.4084, PMID: 6099228; conditions: pH 7.4
[21] = method code SF-AS, from DOI: 10.1016/s0969-8051(99)00063-3, PMID: 10628565; conditions: pH 7.0
[22] = method code SF-HPLC, from DOI: 10.1006/pest.1998.2384
[23] = method code SF-ILT, from DOI: 10.1002/ardp.19763091008, PMID: 1008678
[24] = method code SF-AS, from DOI: 10.1211/0022357011776199, PMID: 11428660; conditions: pH 7.4
[25] = method code SF-AS, from DOI: 10.1021/jm00040a014, PMID: 8035429; conditions: pH 7.4
[26] = method code SF-HPLC, from DOI: 10.1002/ps.2780280108
[27] = method code SF, from DOI: 10.1016/j.bcp.2004.09.021, PMID: 15627482; conditions: pH 7.0
[28] = not given; remark: listed apart in the source
[29] = method code SF-HPLC, from DOI: 10.1248/cpb.37.2861, PMID: 2611948; conditions: pH 4.0
[30] = not given; remark: listed apart in the source
[31] = method code SF, from DOI: 10.1021/jm00140a005, PMID: 7035668; conditions: pH 12.0
[32] = method code SF-AS, from DOI: 10.1016/0300-483x(85)90004-6, PMID: 4024126
[33] = not given; remark: listed apart in the source

Q: For `O=C(NCCN1C(=O)C=CC1=O)c1cccc(I)c1`, which logD [1] is on record?
A: The logD was 1.03.

Q: Which logD [2] does the source give for `CCCCCN1C(=O)CCC(N2C(=O)c3ccccc3C2=O)C1=O` (stereo not drawn) here?
A: The logD was 3.01.

Q: With `C=C(c1ccccc1OCCCCCO)n1ccnc1` as the compound, how does the logP [3] read?
A: Its logP is 2.89.

Q: With `CCCCCC(C=O)(CCCC)c1oc(=O)c(CCCC)c(O)c1CCCC` (stereo not drawn) as the compound, how does the logP read?
A: Its logP is 1.52.

Q: Which logP [4] does the source give for `CCCCCCCCc1ccncc1` here?
A: Its logP is 5.42.

Q: Which logP does the source give for `CCCCc1c(C)oc(=O)c(CCCC)c1O` here?
A: The logP was 0.79.

Q: Which logD [5] does the source give for `CN1C2CCC1C(c1ccccn1)C2` (stereo not drawn) here?
A: Its logD is 1.34.

Q: Which logP [6] does the source give for `Cc1nc(NCCN)c(C#N)cc1-c1ccncc1` here?
A: The logP was 1.91.

Q: For `O=C(NCCN1C(=O)C=CC1=O)c1cncc(I)c1`, which logD [1] is on record?
A: Its logD is 0.63.

Q: With `Cc1nc(C#Cc2cc(F)cc(C#N)c2)cs1` as the compound, how does the logD [7] read?
A: The logD was 3.2.

Q: Which logP [8] does the source give for `CCCCCC(=O)N(C)c1ccc(S(=O)(=O)N(C)C)cc1` here?
A: The logP was 2.16.

Q: For `CC(=O)c1cc(C(C)(C)C)ccc1OCC(O)CN` (stereo not drawn), which logP [9] is on record?
A: The logP was 0.38.

Q: Which logP [10] does the source give for `O=C(NC1CCN(CCO)CC1)c1ccc(I)cc1` here?
A: Its logP is 1.93.

Q: For `CN(C)Cc1ccc(CSCCNc2[nH]ccc2[N+](=O)[O-])o1`, which logP [11] is on record?
A: Its logP is 1.64.

Q: For `CCCNC(C)C(=O)Nc1ccccc1C` (stereo not drawn), which logP [12] is on record?
A: The logP was 2.11.

Q: With `O=[N+]([O-])c1ccc2c(c1)Cc1ccccc1-2` as the compound, how does the logP [13] read?
A: Its logP is 3.99.

Q: Which logP [14] does the source give for `CC[C@]1(Cl)C(=O)NC(=O)N([C@H]2C[C@H](O)[C@@H](CO)O2)[C@@H]1OC` here?
A: Its logP is 0.4.

Q: With `COP(=O)(OC)O/C(C)=C/C(=O)OC(C)c1ccccc1` (stereo not drawn) as the compound, how does the logP [15] read?
A: Its logP is 3.

Q: With `CCOP(=S)(Oc1ccccc1)c1ccccc1` (stereo not drawn) as the compound, how does the logD [16] read?
A: Its logD is 1.79.

Q: Which logP [17] does the source give for `O=C1CN=C(c2ccccn2)c2cc(Br)ccc2N1` here?
A: Its logP is 2.05.

Q: For `CCN(CC)CC(=O)NCC(=O)Nc1c(C)cccc1C`, which logD [18] is on record?
A: Its logD is 2.2.

Q: Which logD [18] does the source give for `Cc1cccc(C)c1NC(=O)CN(C)C` here?
A: Its logD is 1.23.

Q: With `COc1ccc(C(=O)c2ncc(C(=O)O)n2C)cc1` as the compound, how does the logD [19] read?
A: The logD was 2.01.

Q: Which logD [20] does the source give for `CCc1ccc(NC(=O)CN2CCCCC2)cc1` here?
A: Its logD is 3.52.

Q: For `O=c1[nH]c(Nc2ccccc2)nc2c1ncn2CC(O)CSCCO` (stereo not drawn), which logD [21] is on record?
A: The logD was 0.83.

Q: For `O=c1[nH]c(Nc2ccccc2)nc2c1ncn2CC(O)CO` (stereo not drawn), which logD [21] is on record?
A: The logD was 0.4.

Q: Which logP [6] does the source give for `CN1CCN(c2ncc(-c3ccncc3)cc2C#N)CC1` here?
A: Its logP is 2.96.

Q: Which logP [22] does the source give for `C#CCN1CCN(Cc2ccc(Cl)nc2)C1=N[N+](=O)[O-]` here?
A: The logP was 0.29.

Q: Which logP [23] does the source give for `CCN(CC)C(=O)[C@@H]1[C@@H](C(=O)N(CC)CC)[C@H]2C=C[C@@H]1C2` here?
A: Its logP is 1.16.

Q: With `CCN(CC)CC(=O)OCCn1c([N+](=O)[O-])cnc1C` as the compound, how does the logD [24] read?
A: Its logD is 0.03.

Q: With `COP(=O)(OC)C(=O)Nc1ccn(C2CSC(COC(=O)P(=O)(OC)OC)O2)c(=O)n1` (stereo not drawn) as the compound, how does the logD [25] read?
A: Its logD is 0.72.

Q: For `COC(=O)c1c(C)[nH]c(-c2ncccc2Cl)c1C(=O)OC`, which logP [26] is on record?
A: The logP was 1.51.

Q: With `CCN/C(=N/C#N)NCCSCc1ncccc1Br` as the compound, how does the logP [11] read?
A: The logP was 1.98.

Q: For `CN1C2CCC1C(c1cccnc1)C2` (stereo not drawn), which logD [5] is on record?
A: The logD was 1.65.

Q: With `CN1C(=O)CCC(N2C(=O)c3ccccc3C2=O)C1=O` (stereo not drawn) as the compound, how does the logD [2] read?
A: Its logD is 1.15.

Q: For `CCCCC1(C(=O)OCCC)CCC=[N+]1[O-]` (stereo not drawn), which logD [27] is on record?
A: The logD was 1.16.

Q: For `CC(C)(C)C(O)C(Oc1ccc(Cl)cc1)n1cncn1` (stereo not drawn), which logP [28] is on record?
A: The logP was 3.05.

Q: With `Cc1ccc(Cn2cc(F)c(=O)[nH]c2=O)cc1` as the compound, how does the logD [29] read?
A: The logD was 1.5.

Q: For `O=C(CN1CCCCC1)Nc1ccc(Cl)cc1`, which logD [20] is on record?
A: Its logD is 3.26.

Q: Which logD [24] does the source give for `Cc1ncc([N+](=O)[O-])n1CCOC(=O)CN1CCOCC1` here?
A: The logD was 0.27.

Q: For `CCN(CC)C(=O)C1C2CC3C(OC(=O)C31)C2O` (stereo not drawn), which logP [23] is on record?
A: The logP was 0.15.

Q: With `O=C(NC1CCN(CCF)CC1)c1ccc(I)cc1` as the compound, how does the logP [10] read?
A: The logP was 2.57.

Q: For `COC(=O)c1c(C)[nH]c(-c2cc(Cl)ccn2)c1C(=O)OC`, which logP [26] is on record?
A: The logP was 2.63.

Q: With `CCCCC1(C(=O)OC(C)CC)CCC=[N+]1[O-]` (stereo not drawn) as the compound, how does the logD [27] read?
A: The logD was 1.59.

Q: For `O=C1c2ccccc2C(=O)c2c(O)cccc21`, which logP [30] is on record?
A: The logP was 3.52.

Q: For `CCCCCCCCCc1ccncc1`, which logP [4] is on record?
A: Its logP is 6.11.

Q: For `C=CCOc1ccccc1C(=C)n1ccnc1`, which logP [3] is on record?
A: The logP was 2.74.

Q: Which logP [12] does the source give for `CCN(CC)CCOC(=O)c1ccc(N)cc1Cl` here?
A: The logP was 2.86.

Q: For `COc1cc(Cc2cnc(N)nc2N)cc(OC)c1C`, which logD [31] is on record?
A: Its logD is 2.14.

Q: Which logD [31] does the source give for `COc1cc(Cc2cnc(N)nc2N)cc(OC)c1Oc1ccc(N)cc1` here?
A: Its logD is 0.9.

Q: For `CN(C(=O)CCC(N)=O)c1ccc(S(=O)(=O)N(C)C)cc1`, which logP [8] is on record?
A: Its logP is -0.56.

Q: For `N#Cc1cc(F)cc(C#Cc2ccccn2)c1`, which logD [7] is on record?
A: Its logD is 2.8.

Q: With `COc1ccc(Cn2cc(F)c(=O)[nH]c2=O)cc1` as the compound, how does the logD [29] read?
A: The logD was 1.04.

Q: With `c1ccc2c(c1)-c1cccc3cccc-2c13` as the compound, how does the logP [30] read?
A: The logP was 5.15.

Q: With `CCOP(=O)(CC(=O)Nc1ccn(C2CSC(CO)O2)c(=O)n1)OCC` (stereo not drawn) as the compound, how does the logD [25] read?
A: Its logD is 0.99.

Q: For `CC(C)(C)c1ccc(N2C(=O)CCC2=O)cc1`, which logP [32] is on record?
A: The logP was 0.67.

Q: Which logP [13] does the source give for `O=[N+]([O-])c1ccc(-c2ccc([N+](=O)[O-])cc2)cc1` here?
A: The logP was 3.2.

Q: Which logD [16] does the source give for `CCOP(=S)(Oc1ccc(C)cc1)c1ccccc1` (stereo not drawn) here?
A: The logD was 2.22.

Q: For `ClC1=C(Cl)C2(Cl)C3C4C=CC(C4)C3C1(Cl)C2(Cl)Cl` (stereo not drawn), which logP [15] is on record?
A: The logP was 5.67.

Q: For `CC[C@@]1(Br)C(=O)NC(=O)N([C@H]2C[C@H](O)[C@@H](CO)O2)[C@H]1OC`, which logP [14] is on record?
A: The logP was 0.4.

Q: With `CC(=O)c1cc(C(C)C)ccc1OCC(O)CN` (stereo not drawn) as the compound, how does the logP [9] read?
A: Its logP is 0.1.

Q: Which logD [19] does the source give for `Cc1ccc(C(=O)c2ncc(C(=O)O)n2C)cc1` here?
A: Its logD is 2.25.

Q: With `C=CCN1CCN(Cc2ccc(Cl)nc2)C1=N[N+](=O)[O-]` as the compound, how does the logP [22] read?
A: Its logP is 0.51.

Q: With `CCCCC(C#N)(Cn1cncn1)c1ccc(Cl)cc1` (stereo not drawn) as the compound, how does the logP [28] read?
A: The logP was 3.16.

Q: For `O=C1CN(O)C(c2ccccc2)=c2cc(Cl)ccc2=N1`, which logD ([17]; pH 4.0) is on record?
A: Its logD is 1.49.

Q: Which logP [33] does the source give for `NS(=O)(=O)c1ccc(-c2cn([C@@H]3O[C@H](CO)[C@@H](O)[C@H](O)[C@H]3O)nn2)cc1` here?
A: Its logP is -0.1.

Q: With `NS(=O)(=O)c1ccc(-n2cc(-c3ccccc3)nn2)cc1` as the compound, how does the logP [33] read?
A: The logP was 2.3.

Q: For `CC(=O)c1ccc(N2C(=O)CCC2=O)cc1`, which logP [32] is on record?
A: Its logP is 1.37.
